Where only a bound is given, the exact number is not on record here.

The assay addresses T1, GCase (Homo sapiens, UniProt P04062).
T1 construct: endogenous in cells; host or cells: HeLa cells
T1 sequence (P04062 40-536): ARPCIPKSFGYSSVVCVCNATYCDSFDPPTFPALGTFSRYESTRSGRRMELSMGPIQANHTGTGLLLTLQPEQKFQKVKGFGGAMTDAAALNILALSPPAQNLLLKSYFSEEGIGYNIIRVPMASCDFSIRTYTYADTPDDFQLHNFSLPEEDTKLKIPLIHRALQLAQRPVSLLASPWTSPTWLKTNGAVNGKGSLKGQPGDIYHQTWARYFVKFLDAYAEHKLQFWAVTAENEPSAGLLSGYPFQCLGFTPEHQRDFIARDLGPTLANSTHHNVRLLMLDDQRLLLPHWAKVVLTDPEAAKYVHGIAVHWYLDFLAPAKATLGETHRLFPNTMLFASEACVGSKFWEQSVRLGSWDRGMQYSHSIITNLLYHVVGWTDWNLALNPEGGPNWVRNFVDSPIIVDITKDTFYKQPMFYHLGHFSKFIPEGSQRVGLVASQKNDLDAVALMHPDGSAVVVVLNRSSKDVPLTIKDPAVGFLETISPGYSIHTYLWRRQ
The experiment in a line: activation of GCase in a live cell PFB assay in HELA cells. The class given is cell-based. As to conditions: activation of GCase, EC50 ranges. As to the method:
Exemplary compounds were evaluated for activation of GCase in a live cell PFB assay in HELA cells (essentially as described in Ysselstein et al., “LRRK2 kinase activity regulates lysosomal glucocerebrosidase in neurons derived from Parkinson's disease patients” Nature Communications (2019) 10:5570). […] EC50 ranges: A: <10 μM; B: >10-50 μM; C: >50-100 μM; D: >100 μM.
The term EC50 denotes the midpoint of the concentration-response curve. Read a high EC50 as a need for much substance. On to `FC(F)Cn1ncc2ncc(N3CCC4(CC3)CN(c3ccnc(C(F)(F)F)c3)C4)nc21` [Compound 68, 7-[1-(2,2-difluoroethyl)-1H-pyrazolo[3,4-b]pyrazin-6-yl]-2-[2-(trifluoromethyl)pyridin-4-yl]-2,7-diazaspiro[3.5]nonane], for which the EC50 is less than 10 µM.

In turn, `FC(F)Cn1ncc2ncc(N3CCC4(CC3)CN(c3cncc(C(F)(F)F)c3)C4)nc21` [Compound 69, 7-[1-(2,2-difluoroethyl)-1H-pyrazolo[3,4-b]pyrazin-6-yl]-2-[5-(trifluoromethyl)pyridin-3-yl]-2,7-diazaspiro[3.5]nonane] showed an EC50 of 10 to 50 µM.

For `O=C1N(c2cc(C(F)(F)F)ccn2)C(=O)C2(CCN(c3cnc4cnn(CC(F)F)c4n3)CC2)N1Cc1ccccc1` [Compound 70, 1-benzyl-8-(1-(2,2-difluoroethyl)-1H-pyrazolo[3,4-b]pyrazin-6-yl)-3-(4-(trifluoromethyl)pyridin-2-yl)-1,3,8-triazaspiro[4.5]decane-2,4-dione], the EC50 was less than 10 µM.

Turning to `CC1(C)C(=O)N(c2cc(C(F)(F)F)ccn2)CC12CCN(c1cnc3cnn(CC(F)F)c3n1)CC2` [Compound 73, 8-(1-(2,2-difluoroethyl)-1H-pyrazolo[3,4-b]pyrazin-6-yl)-4,4-dimethyl-2-(4-(trifluoromethyl)pyridin-2-yl)-2,8-diazaspiro[4.5]decan-3-one], the EC50 was less than 10 µM.

As for `CCC1C(=O)N(c2cc(C(F)(F)F)ccn2)CC12CCN(c1cnc3cnn(CC(F)F)c3n1)CC2` (stereo not drawn) [Compound 75, 8-(1-(2,2-difluoroethyl)-1H-pyrazolo[3,4-b]pyrazin-6-yl)-4-ethyl-2-(4-(trifluoromethyl)pyridin-2-yl)-2,8-diazaspiro[4.5]decan-3-one], the EC50 is less than 10 µM.

In turn, `FC(F)Cn1ncc2ncc(N3CCC4(CC3)CN(c3cnccc3C(F)(F)F)C4)nc21` [Compound 76, 7-[1-(2,2-difluoroethyl)-1H-pyrazolo[3,4-b]pyrazin-6-yl]-2-[4-(trifluoromethyl)pyridin-3-yl]-2,7-diazaspiro[3.5]nonane] yielded an EC50 of less than 10 µM.

Consider `FC(F)Cn1ncc2ncc(N3CCC4(CC3)CN(c3cccc(C(F)(F)F)n3)C4)nc21` [Compound 77, 7-[1-(2,2-difluoroethyl)-1H-pyrazolo[3,4-b]pyrazin-6-yl]-2-[6-(trifluoromethyl)pyridin-2-yl]-2,7-diazaspiro[3.5]nonane], for which the EC50 was less than 10 µM.

In turn, `FC(F)Cn1ncc2ncc(N3CCC4(CC3)CN(c3ccc(C(F)(F)F)cn3)C4)nc21` [Compound 78, 7-[1-(2,2-difluoroethyl)-1H-pyrazolo[3,4-b]pyrazin-6-yl]-2-[5-(trifluoromethyl)pyridin-2-yl]-2,7-diazaspiro[3.5]nonane] had an EC50 of 10 to 50 µM.

In the case of `FC(F)Cn1ncc2ncc(N3CCC4(CC3)CN(c3ncccc3C(F)(F)F)C4)nc21` [Compound 79, 7-[1-(2,2-difluoroethyl)-1H-pyrazolo[3,4-b]pyrazin-6-yl]-2-[3-(trifluoromethyl)pyridin-2-yl]-2,7-diazaspiro[3.5]nonane], the EC50 was less than 10 µM.

The molecule `FC(F)Cn1ncc2ncc(N3CCC4(CCCC4COc4cccc(C(F)(F)F)n4)CC3)nc21` (stereo not drawn) [Compound 80, 8-[1-(2,2-difluoroethyl)-1H-pyrazolo[3,4-b]pyrazin-6-yl]-1-({[6-(trifluoromethyl)pyridin-2-yl]oxy}methyl)-8-azaspiro[4.5]decane] yielded a half-maximal effective concentration (EC50) of 10 to 50 µM.

Regarding `FC(F)Cn1ncc2ncc(N3CCC4(CCC(Oc5cccc(C(F)(F)F)n5)C4)CC3)nc21` (stereo not drawn) [Compound 81, 8-[1-(2,2-difluoroethyl)-1H-pyrazolo[3,4-b]pyrazin-6-yl]-2-{[6-(trifluoromethyl)pyridin-2-yl]oxy}-8-azaspiro[4.5]decane], the EC50 is 10 to 50 µM.

In turn, `FC(F)Cn1ncc2ncc(N3CCC4(CCC4COc4cccc(C(F)(F)F)n4)CC3)nc21` (stereo not drawn) [Compound 82, 7-[1-(2,2-difluoroethyl)-1H-pyrazolo[3,4-b]pyrazin-6-yl]-1-({[6-(trifluoromethyl)pyridin-2-yl]oxy}methyl)-7-azaspiro[3.5]nonane] yielded a concentration giving a half-maximal response (EC50) of 10 to 50 µM.

The molecule `FC(F)Cn1ncc2ncc(N3CCC4(CCC4Oc4cccc(C(F)(F)F)n4)CC3)nc21` (stereo not drawn) [Compound 83, 7-[1-(2,2-difluoroethyl)-1H-pyrazolo[3,4-b]pyrazin-6-yl]-1-{[6-(trifluoromethyl)pyridin-2-yl]oxy}-7-azaspiro[3.5]nonane] had an EC50 of 10 to 50 µM.

As to `FC(F)Cn1ncc2ncc(N3CCC4(CC3)CC(Oc3cccc(C(F)(F)F)n3)C4)nc21` [Compound 84, 7-[1-(2,2-difluoroethyl)-1H-pyrazolo[3,4-b]pyrazin-6-yl]-2-{[6-(trifluoromethyl)pyridin-2-yl]oxy}-7-azaspiro[3.5]nonane], the EC50 is 10 to 50 µM.

With `FC(F)Cn1ncc2ncc(N3CCC4(CC3)CC(COc3cccc(C(F)(F)F)n3)C4)nc21` [Compound 85, 7-[1-(2,2-difluoroethyl)-1H-pyrazolo[3,4-b]pyrazin-6-yl]-2-({[6-(trifluoromethyl)pyridin-2-yl]oxy}methyl)-7-azaspiro[3.5]nonane], the EC50 lay within 10 to 50 µM.

Turning to `FC(F)Cn1ncc2ncc(N3CCC4(CCC(Oc5cccnc5C(F)(F)F)C4)CC3)nc21` (stereo not drawn) [Compound 86, 8-[1-(2,2-difluoroethyl)-1H-pyrazolo[3,4-b]pyrazin-6-yl]-2-{[2-(trifluoromethyl)pyridin-3-yl]oxy}-8-azaspiro[4.5]decane], the EC50 is less than 10 µM.

The molecule `FC(F)Cn1ncc2ncc(N3CCC4(CCC4Oc4cccnc4C(F)(F)F)CC3)nc21` (stereo not drawn) [Compound 87, 7-[1-(2,2-difluoroethyl)-1H-pyrazolo[3,4-b]pyrazin-6-yl]-1-{[2-(trifluoromethyl)pyridin-3-yl]oxy}-7-azaspiro[3.5]nonane] displayed an EC50 of less than 10 µM.

Molecule `FC(F)Cn1ncc2ncc(N3CCC4(CC3)CC(Oc3cccnc3C(F)(F)F)C4)nc21` [Compound 88, 7-[1-(2,2-difluoroethyl)-1H-pyrazolo[3,4-b]pyrazin-6-yl]-2-{[2-(trifluoromethyl)pyridin-3-yl]oxy}-7-azaspiro[3.5]nonane] came in with an EC50 of less than 10 µM.

For `FC(F)Cn1ncc2ncc(N3CCC4(CC3)CC(COc3cccnc3C(F)(F)F)C4)nc21` [Compound 89, 7-[1-(2,2-difluoroethyl)-1H-pyrazolo[3,4-b]pyrazin-6-yl]-2-({[2-(trifluoromethyl)pyridin-3-yl]oxy}methyl)-7-azaspiro[3.5]nonane], the EC50 was in the range of 10 to 50 µM.

`O=C1CC2(CCCN(c3cnc4cnn(CC(F)F)c4n3)C2)CN1c1cccc(C(F)(F)F)n1` (stereo not drawn) [Compound 95, 7-[1-(2,2-difluoroethyl)-1H-pyrazolo[3,4-b]pyrazin-6-yl]-2-[6-(trifluoromethyl)pyridin-2-yl]-2,7-diazaspiro[4.5]decan-3-one]: the EC50 lay in the range of 10 to 50 µM.

The molecule `O=C1N(c2cccc(C(F)(F)F)n2)CCC12CCCN(c1cnc3cnn(CC(F)F)c3n1)C2` (stereo not drawn) [Compound 96, 7-[1-(2,2-difluoroethyl)-1H-pyrazolo[3,4-b]pyrazin-6-yl]-2-[6-(trifluoromethyl)pyridin-2-yl]-2,7-diazaspiro[4.5]decan-1-one] displayed a 50% effective concentration (EC50) of 10 to 50 µM.

`O=C1CC2(CCCN(c3cnc4cnn(CC(F)F)c4n3)C2)CN1c1cc(C(F)(F)F)ccn1` (stereo not drawn) [Compound 97, 7-[1-(2,2-difluoroethyl)-1H-pyrazolo[3,4-b]pyrazin-6-yl]-2-[4-(trifluoromethyl)pyridin-2-yl]-2,7-diazaspiro[4.5]decan-3-one] gave an EC50 of 50 to 100 µM.

Turning to `O=C1N(c2cc(C(F)(F)F)ccn2)CCC12CCCN(c1cnc3cnn(CC(F)F)c3n1)C2` (stereo not drawn) [Compound 98, 7-[1-(2,2-difluoroethyl)-1H-pyrazolo[3,4-b]pyrazin-6-yl]-2-[4-(trifluoromethyl)pyridin-2-yl]-2,7-diazaspiro[4.5]decan-1-one], the concentration for a half-maximal effect (EC50) fell in the range of 50 to 100 µM.

Consider `O=C1N(c2cnc3cnn(CC(F)F)c3n2)CCC12CCN(c1cccc(C(F)(F)F)n1)CC2` [Compound 99, 2-[1-(2,2-difluoroethyl)-1H-pyrazolo[3,4-b]pyrazin-6-yl]-8-[6-(trifluoromethyl)pyridin-2-yl]-2,8-diazaspiro[4.5]decan-1-one], for which the EC50 is less than 10 µM.

Turning to `O=C1CC2(CCN(c3cccc(C(F)(F)F)n3)CC2)CN1c1cnc2cnn(CC(F)F)c2n1` [Compound 100, 2-[1-(2,2-difluoroethyl)-1H-pyrazolo[3,4-b]pyrazin-6-yl]-8-[6-(trifluoromethyl)pyridin-2-yl]-2,8-diazaspiro[4.5]decan-3-one], the EC50 is 10 to 50 µM.

Molecule `O=C1CC2(CCN(c3cnc4cnn(CC(F)F)c4n3)CC2)CN1c1cccc(C(F)(F)F)n1` [Compound 101, 8-[1-(2,2-difluoroethyl)-1H-pyrazolo[3,4-b]pyrazin-6-yl]-2-[6-(trifluoromethyl)pyridin-2-yl]-2,8-diazaspiro[4.5]decan-3-one] came in with an EC50 of 10 to 50 µM.

Take `O=C1N(c2cccc(C(F)(F)F)n2)CCC12CCN(c1cnc3cnn(CC(F)F)c3n1)CC2` [Compound 102, 8-[1-(2,2-difluoroethyl)-1H-pyrazolo[3,4-b]pyrazin-6-yl]-2-[6-(trifluoromethyl)pyridin-2-yl]-2,8-diazaspiro[4.5]decan-1-one]: the 50% effective concentration (EC50) was in the range of 10 to 50 µM.

Values taken from patent US20250034170A1, “SMALL MOLECULE MODULATORS OF GLUCOCEREBROSIDASE ACTIVITY AND USES THEREOF” (Vanqua Bio, Inc., priority 2021, published 2025).
